Earlier results on 1 compound are cited in US20230113077A1, “CONTROLLED RELEASE SELEXIPAG COMPOSITION” (ACTELION PHARMACEUTICALS LTD, priority 2020, published 2023).

SMILES strings stand for the structures.

For this data set the following is noted: phase III clinical trial; patients with pulmonary arterial hypertension; selexipag versus placebo.

In the case of `CC(C)N(CCCCOCC(=O)NS(C)(=O)=O)c1cnc(-c2ccccc2)c(-c2ccccc2)n1` [selexipag, 2-{4-[N-(5,6-diphenylpyrazin-2-yl)-N-isopropylamino]butyloxy}-N-(methylsulfonyl)acetamide], the “risk of the primary composite end point of death or a complication related to pulmonary arterial hypertension” value is listed as “significantly lower”.
